Experimental data reported in patent US5260300A, “Rapamycin carbonate esters as immuno-suppressant agents” (American Home Products Corporation, priority 1992, dated 1993).
“And” between values parts separate entries of the source, which are not always exact repeats. Equal values may be shown once. Read-outs that look alike come from different tables or passages of the source.

Experiments:
[1] = cited from earlier work
[2] = in vivo; cited from earlier work
[3] = in vivo; cited from earlier work; remark: listed apart in the source
[4] = system: Candida albicans; conditions: particularly against Candida albicans; cited from earlier work
[5] = system: Candida albicans; conditions: particularly against Candida albicans; cited from earlier work; remark: listed apart in the source
[6] = system: IgE-like antibodies; conditions: in vivo; cited from earlier work
[7] = system: cells from the thymus of normal BALB/c mice (lymphocyte proliferation); assay: LAF assay: comitogen-induced thymocyte proliferation (inhibition of lymphocyte proliferation); assay type: cell-based
Description: Immunosuppressive activity was determined in an in vitro standard pharmacological test to measure lymphocyte proliferation (LAF). […] Thus in this assay, the invention compounds have LAF activity equal or greater than rapamycin and would therefore be expected to posses the immunological properties of rapamycin and be useful in the treatment of transplantation rejection and autoimmune diseases such as lupus, rheumatoid arthritis, diabetes mellitus, multiple sclerosis, psoriasis and the like. Because of the structural similarity of the invention compounds with rapamycin and other analogs having antifungal activity against several strains of Candida albicans, the compounds of this invention would also be expected to have antifungal properties. Similarly, the compounds of this invention would be expected to have antiinflammatory activity.
The comitogen-induced thymocyte proliferation procedure (LAF) was used as an in vitro measure of the immunosuppressive effects of representative compounds. Briefly, cells from the thymus of normal BALB/c mice are cultured for 72 hours with PHA and IL-1 and pulsed with tritiated thymidine during the last six hours. Cells are cultured with and without various concentrations of rapamycin, cyclosporin A, or test compound. Cells are harvested and incorporated; radioactivity is determined. Inhibition of lymphoproliferation is assessed in percent change in counts per minute from non-drug treated controls. The results are expressed by the following ratio, or as the percent inhibition of lymphoproliferation at a concentration of 1 μM or as the IC50. [formula]

[8] = system: tumor; conditions: alone or in combination with picibanil; cited from earlier work
[9] = Mus musculus, Lymphocyte, 72 h, Table I, 72 hours culture with PHA and IL-1, read-out: IC50 Ester (IC50 data for LAF assay)

In the case of `C=CC[C@@H]1/C=C(\C)C[C@H](C)C[C@H](OC)[C@H]2O[C@@](O)(C(=O)C(=O)N3CCCC[C@H]3C(=O)O[C@H](/C(C)=C/[C@@H]3CC[C@@H](O)[C@H](OC)C3)[C@H](C)[C@@H](O)CC1=O)[C@H](C)C[C@@H]2OC` [FK-506], the “effectiveness as immunosuppressive agent” value ([1]; useful in preventing transplant rejection) is given as “effective as immunosuppressive agents”.

For `CO[C@H]1C[C@@H]2CC[C@@H](C)[C@@](O)(O2)C(=O)C(=O)N2CCCC[C@H]2C(=O)O[C@H]([C@H](C)C[C@@H]2CC[C@@H](O)[C@H](OC)C2)CC(=O)[C@H](C)/C=C(\C)[C@@H](O)[C@@H](OC)C(=O)[C@H](C)C[C@H](C)/C=C/C=C/C=C/1C` [Rapamycin], the “efficacy in adjuvant arthritis model” value [2] is listed as “effective”, the “efficacy in experimental allergic encephalomyelitis model” value [3] is listed as “effective” and the “antifungal activity in vivo” value [4] is listed as “antifungal activity, particularly against Candida albicans”. The “antifungal activity in vitro” value [5] was “antifungal activity, particularly against Candida albicans”, the “inhibition of formation of IgE-like antibodies” value [6] was “effectively inhibited” and the “inhibition of transplant rejection” value ([1]; in vivo) was “effective in inhibiting transplant rejection”. The IC50 ([7]; Table I, Rapamycin, comparative result beside each example ester, read-out: IC50 Rapamycin (IC50 data for LAF assay)) was 3.9 nM and 3.8 nM and 6.3 nM and the antitumor activity [8] was “antitumor activity”.

`CO[C@H]1C[C@@H]2CC[C@@H](C)[C@@](O)(O2)C(=O)C(=O)N2CCCC[C@H]2C(=O)O[C@H]([C@H](C)C[C@@H]2CC[C@@H](OC(=O)Oc3ccccc3)[C@H](OC)C2)CC(=O)[C@H](C)/C=C(\C)[C@@H](O)[C@@H](OC)C(=O)[C@H](C)C[C@H](C)/C=C/C=C/C=C/1C` [Example 3, 42-O-(Phenyloxycarbonyl)rapamycin] gave an IC50 [7, 9] of 0.34 nM.

`CO[C@H]1C[C@@H]2CC[C@@H](C)[C@@](O)(O2)C(=O)C(=O)N2CCCC[C@H]2C(=O)O[C@H]([C@H](C)C[C@@H]2CC[C@@H](OC(=O)Oc3ccc([N+](=O)[O-])cc3)[C@H](OC)C2)CC(=O)[C@H](C)/C=C(\C)[C@@H](OC(=O)Oc2ccc([N+](=O)[O-])cc2)[C@@H](OC)C(=O)[C@H](C)C[C@H](C)/C=C/C=C/C=C/1C` [Example 4B, 31, 42-O-Bis(4-Nitrophenyloxycarbonyl)rapamycin] showed an IC50 ([7]; Mus musculus, Lymphocyte, 72 h, read-out: IC50 Ester (IC50 data for LAF assay)) of 23 nM.

Compound `COC(=O)O[C@@H]1CC[C@@H](C[C@@H](C)[C@@H]2CC(=O)[C@H](C)/C=C(\C)[C@@H](O)[C@@H](OC)C(=O)[C@H](C)C[C@H](C)/C=C/C=C/C=C(\C)[C@@H](OC)C[C@@H]3CC[C@@H](C)[C@@](O)(O3)C(=O)C(=O)N3CCCC[C@H]3C(=O)O2)C[C@H]1OC` [Example 1B, 42-O-Methoxycarbonylrapamycin] has an IC50 [7, 9] of 2.5 nM.

In the case of `COC(=O)O[C@@H]1/C(C)=C/[C@@H](C)C(=O)C[C@@H]([C@H](C)C[C@@H]2CC[C@@H](OC(=O)OC)[C@H](OC)C2)OC(=O)[C@@H]2CCCCN2C(=O)C(=O)[C@]2(O)O[C@@H](CC[C@H]2C)C[C@H](OC)/C(C)=C/C=C/C=C/[C@@H](C)C[C@@H](C)C(=O)[C@@H]1OC` [Example 1A, 31, 42-O-Bis(methoxycarbonyl)rapamycin], the IC50 [7, 9] is reported as 0.87 nM.

`CO[C@H]1C[C@@H]2CC[C@@H](C)[C@@](O)(O2)C(=O)C(=O)N2CCCC[C@H]2C(=O)O[C@H]([C@H](C)C[C@@H]2CC[C@@H](OC(=O)Oc3ccc([N+](=O)[O-])cc3)[C@H](OC)C2)CC(=O)[C@H](C)/C=C(\C)[C@@H](O)[C@@H](OC)C(=O)[C@H](C)C[C@H](C)/C=C/C=C/C=C/1C` [Example 4A, 42-O-(4-Nitrophenyloxycarbonyl)rapamycin] gave an IC50 [7, 9] of 1 nM.

With `CO[C@H]1C[C@@H]2CC[C@@H](C)[C@@](O)(O2)C(=O)C(=O)N2CCCC[C@H]2C(=O)O[C@H]([C@H](C)C[C@@H]2CC[C@@H](OC(=O)OCc3ccccc3)[C@H](OC)C2)CC(=O)[C@H](C)/C=C(\C)[C@@H](O)[C@@H](OC)C(=O)[C@H](C)C[C@H](C)/C=C/C=C/C=C/1C` [Example 6, 42-O-(Benzyloxycarbonyl)rapamycin] the IC50 [7, 9] was 0.32 nM.

`C=CCOC(=O)O[C@@H]1CC[C@@H](C[C@@H](C)[C@@H]2CC(=O)[C@H](C)/C=C(\C)[C@@H](O)[C@@H](OC)C(=O)[C@H](C)C[C@H](C)/C=C/C=C/C=C(\C)[C@@H](OC)C[C@@H]3CC[C@@H](C)[C@@](O)(O3)C(=O)C(=O)N3CCCC[C@H]3C(=O)O2)C[C@H]1OC` [Example 5, 42-O-(Prop-2-enyloxycarbonyl)rapamycin] showed an IC50 [7, 9] of 1.6 nM.

For `CCOC(=O)O[C@@H]1/C(C)=C/[C@@H](C)C(=O)C[C@@H]([C@H](C)C[C@@H]2CC[C@@H](OC(=O)OCC)[C@H](OC)C2)OC(=O)[C@@H]2CCCCN2C(=O)C(=O)[C@]2(O)O[C@@H](CC[C@H]2C)C[C@H](OC)/C(C)=C/C=C/C=C/[C@@H](C)C[C@@H](C)C(=O)[C@@H]1OC` [Example 2A, 31, 42-O-Bis(ethoxycarbonyl)rapamycin], the IC50 [7, 9] was 2 nM.

Compound `CCOC(=O)O[C@@H]1CC[C@@H](C[C@@H](C)[C@@H]2CC(=O)[C@H](C)/C=C(\C)[C@@H](O)[C@@H](OC)C(=O)[C@H](C)C[C@H](C)/C=C/C=C/C=C(\C)[C@@H](OC)C[C@@H]3CC[C@@H](C)[C@@](O)(O3)C(=O)C(=O)N3CCCC[C@H]3C(=O)O2)C[C@H]1OC` [Example 2B, 42-O-Ethoxycarbonylrapamycin] has an IC50 [7, 9] of 0.6 nM.
